Results reported in PubChem BioAssay (NCI).
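A five-concentration, 48-hour dose response in 96-well plates underlies each endpoint, interpolated linearly between surrounding concentrations. The concentration for 50% growth inhibition is given as GI50. Definition used: TGI = concentration required for complete inhibition of growth.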

Assays:
Assay in all cases: NCI anticancer screen, dose series, 48 h
786-0 renal = tested on: 786-0 renal
A498 renal = tested on: A498 renal
A549 NSCLC = tested on: A549 NSCLC
ACHN renal = tested on: ACHN renal
BT-549 breast = tested on: BT-549 breast
CAKI-1 renal = tested on: CAKI-1 renal
CCRF-CEM leukemia = tested on: CCRF-CEM leukemia
COLO 205 colon = tested on: COLO 205 colon
DU-145 prostate = tested on: DU-145 prostate
EKVX NSCLC = tested on: EKVX NSCLC
HCC-2998 colon = tested on: HCC-2998 colon
HCT-116 colon = tested on: HCT-116 colon
HCT-15 colon = tested on: HCT-15 colon
HL-60(TB) leukemia = tested on: HL-60(TB) leukemia
HOP-62 NSCLC = tested on: HOP-62 NSCLC
HOP-92 NSCLC = tested on: HOP-92 NSCLC
HS 578T breast = tested on: HS 578T breast
HT29 colon = tested on: HT29 colon
IGROV1 ovarian = tested on: IGROV1 ovarian
K-562 leukemia = tested on: K-562 leukemia
KM12 colon = tested on: KM12 colon
LOX IMVI melanoma = tested on: LOX IMVI melanoma
M14 melanoma = tested on: M14 melanoma
MALME-3M melanoma = tested on: MALME-3M melanoma
MCF7 breast = tested on: MCF7 breast
MDA-MB-231 breast = tested on: MDA-MB-231 breast
MDA-MB-435 = tested on: MDA-MB-435
MDA-MB-468 breast = tested on: MDA-MB-468 breast
MOLT-4 leukemia = tested on: MOLT-4 leukemia
NCI-H226 lung = tested on: NCI-H226 lung
NCI-H23 lung = tested on: NCI-H23 lung
NCI-H460 lung = tested on: NCI-H460 lung
NCI-H522 lung = tested on: NCI-H522 lung
NCI/ADR-RES ovarian = tested on: NCI/ADR-RES ovarian
OVCAR-3 ovarian = tested on: OVCAR-3 ovarian
OVCAR-4 ovarian = tested on: OVCAR-4 ovarian
OVCAR-5 ovarian = tested on: OVCAR-5 ovarian
OVCAR-8 ovarian = tested on: OVCAR-8 ovarian
PC-3 prostate = tested on: PC-3 prostate
RPMI-8226 leukemia = tested on: RPMI-8226 leukemia
RXF 393 renal = tested on: RXF 393 renal
SF-268 CNS = tested on: SF-268 CNS
SF-295 CNS = tested on: SF-295 CNS
SF-539 CNS = tested on: SF-539 CNS
SK-MEL-2 melanoma = tested on: SK-MEL-2 melanoma
SK-MEL-28 melanoma = tested on: SK-MEL-28 melanoma
SK-MEL-5 melanoma = tested on: SK-MEL-5 melanoma
SK-OV-3 ovarian = tested on: SK-OV-3 ovarian
SN12C renal = tested on: SN12C renal
SNB-19 CNS = tested on: SNB-19 CNS
SNB-75 CNS = tested on: SNB-75 CNS
SR leukemia = tested on: SR leukemia
SW-620 colon = tested on: SW-620 colon
T-47D breast = tested on: T-47D breast
TK-10 renal = tested on: TK-10 renal
U251 CNS = tested on: U251 CNS
UACC-257 melanoma = tested on: UACC-257 melanoma
UACC-62 melanoma = tested on: UACC-62 melanoma
UO-31 renal = tested on: UO-31 renal

## COc1ccc(NC(=O)N/N=C/c2c[nH]c3ccccc23)cc1
786-0 renal
  GI50: 1.52 µM
  TGI: 28.1 µM
A498 renal
  GI50: > 40.7 µM
  TGI: > 88.3 µM
A549 NSCLC
  GI50: 0.815 µM
  TGI: > 100 µM
ACHN renal
  GI50: 1.74 µM
  TGI: > 100 µM
BT-549 breast
  GI50: 0.67 µM
  TGI: > 62.8 µM
CAKI-1 renal
  GI50: 0.678 µM
  TGI: > 100 µM
CCRF-CEM leukemia
  GI50: 0.379 µM
  TGI: 17.6 µM
COLO 205 colon
  GI50: 0.586 µM
  TGI: 3.12 µM
DU-145 prostate
  GI50: 2.05 µM
  TGI: > 64.1 µM
EKVX NSCLC
  GI50: 3.41 µM
  TGI: > 100 µM
HCC-2998 colon
  GI50: 1.91 µM
  TGI: 24.1 µM
HCT-116 colon
  GI50: 0.389 µM
  TGI: 22.6 µM
HCT-15 colon
  GI50: 0.384 µM
  TGI: > 52.7 µM
HL-60(TB) leukemia
  GI50: 0.279 µM
  TGI: 1.53 µM
HOP-62 NSCLC
  GI50: 0.724 µM
  TGI: > 100 µM
HOP-92 NSCLC
  GI50: 2.29 µM
  TGI: 38.3 µM
HS 578T breast
  GI50: 1.13 µM
  TGI: > 100 µM
HT29 colon
  GI50: 0.357 µM
  TGI: 5.01 µM
IGROV1 ovarian
  GI50: 0.646 µM
  TGI: > 100 µM
K-562 leukemia
  GI50: 0.235 µM
  TGI: > 77.1 µM
KM12 colon
  GI50: 0.448 µM
  TGI: > 54.5 µM
LOX IMVI melanoma
  GI50: 0.615 µM
  TGI: > 46.6 µM
M14 melanoma
  GI50: 0.34 µM
  TGI: > 100 µM
MALME-3M melanoma
  GI50: 0.547 µM
  TGI: > 100 µM
MCF7 breast
  GI50: 0.61 µM
  TGI: > 100 µM
MDA-MB-231 breast
  GI50: 1.01 µM
  TGI: 56 µM
MDA-MB-435
  GI50: 0.255 µM
  TGI: 1.89 µM
MDA-MB-468 breast
  GI50: 0.911 µM
  TGI: 4.4 µM
MOLT-4 leukemia
  GI50: 0.502 µM
  TGI: 50.7 µM
NCI-H226 lung
  GI50: 11 µM
  TGI: > 100 µM
NCI-H23 lung
  GI50: 2.14 µM
  TGI: > 51.7 µM
NCI-H460 lung
  GI50: 0.579 µM
  TGI: 26.3 µM
NCI-H522 lung
  GI50: 0.249 µM
  TGI: 0.879 µM
NCI/ADR-RES ovarian
  GI50: 0.308 µM
  TGI: 1.44 µM
OVCAR-3 ovarian
  GI50: 0.38 µM
  TGI: 2.81 µM
OVCAR-4 ovarian
  TGI: > 100 µM
OVCAR-5 ovarian
  GI50: 2 µM
  TGI: > 83.7 µM
OVCAR-8 ovarian
  GI50: 0.801 µM
  TGI: 24.6 µM
PC-3 prostate
  GI50: 1.65 µM
  TGI: > 100 µM
RPMI-8226 leukemia
  GI50: 1.09 µM
  TGI: 15.3 µM
RXF 393 renal
  GI50: 1 µM
  TGI: 11.3 µM
SF-268 CNS
  GI50: 5.44 µM
  TGI: > 81.4 µM
SF-295 CNS
  GI50: 0.458 µM
  TGI: > 32.7 µM
SF-539 CNS
  GI50: 0.391 µM
  TGI: 2.2 µM
SK-MEL-2 melanoma
  GI50: 0.294 µM
  TGI: 28.8 µM
SK-MEL-28 melanoma
  GI50: 3.31 µM
  TGI: > 100 µM
SK-MEL-5 melanoma
  GI50: 0.524 µM
  TGI: 5.18 µM
SK-OV-3 ovarian
  GI50: 1.98 µM
  TGI: > 100 µM
SN12C renal
  GI50: 1.03 µM
  TGI: > 56.7 µM
SNB-19 CNS
  GI50: 1.83 µM
  TGI: > 100 µM
SNB-75 CNS
  GI50: 1.41 µM
  TGI: 12.1 µM
SR leukemia
  GI50: 0.25 µM
  TGI: > 53.4 µM
SW-620 colon
  GI50: 0.517 µM
  TGI: > 100 µM
T-47D breast
  GI50: 1.31 µM
  TGI: > 100 µM
TK-10 renal
  GI50: 7.83 µM
  TGI: 98.2 µM
U251 CNS
  GI50: 0.431 µM
  TGI: > 89.1 µM
UACC-257 melanoma
  GI50: > 100 µM
  TGI: > 100 µM
UACC-62 melanoma
  GI50: 0.364 µM
  TGI: > 47.3 µM
UO-31 renal
  GI50: 1.87 µM
  TGI: > 100 µM
